{"source": "paper PMC10675597", "about": "“Design, Synthesis, and Antisickling Investigation of a Thiazolidine Prodrug of TD-7 That Prolongs the Duration of Action of Antisickling Aromatic Aldehyde” (Pharmaceutics, 2023)", "key": {"[1]": {"assay": "Solubility study of Pro-7 in solvents", "type": "physicochemical", "conditions": "25 °C, 48 h", "method": "The solubility of Pro-7 was tested in water, ethanol, methanol, dichloromethane, chloroform, and acetone. An excess amount of the Pro-7 was added to a known volume of each solvent in a screw cap vial. Each vial was kept in a shaking water bath at 25 °C for 48 h. The content of each vial was filtered using an Acrodisc® syringe filter of […] (Port Washington, NY, USA), and the concentration of Pro-7 determined spectrophotometrically at 296 nm."}, "[2]": {"assay": "In-vivo pharmacokinetic study in rat", "set-up": "species or system male Sprague Dawley rats", "method": "Investigations were carried out to examine the pharmacokinetic profiles of Pro-7, including the enteric-coated microspheres and the intravenous (IV) formulation using a one-period parallel design. The study design and conduct adhered to ethical guidelines and regulatory standards to ensure the welfare of the animals. The study was also conducted in strict adherence to internationally recognized guidelines for ethical research and regulatory standards. The principles of Good Clinical Practice (GCP), the guidelines set forth by the International Conference on Harmonization (ICH), and the rigorous standards of the European Medicines Agency (EMA) served as the framework for the study’s execution. The protocol for the animal study underwent a thorough evaluation and received formal approval from the Research Ethics Committee at the Faculty of Pharmacy, King Abdulaziz University, Saudi Arabia.\nMale Sprague Dawley rats, each with an average weight of 250 g were housed in a controlled facility with a 12-h light/dark cycle, at constant temperature of 25 °C, with continuous access to both food and water throughout the study. All animals were acclimated to standard housing for at least 7 days. The animals were separated into distinct groups (n = 5). Group I was treated with a single PO (50 mg/kg body weight) dose, while Group II was administered a single IV (25 mg/kg body weight) dose of Pro-7. Additional three control groups were included to validate and enhance the robustness of our findings. These include a normal control group without treatment, a control IV administration group that was administered non-medicated SNEDDS formulation, and a control oral administration group that was given non-medicated oral formulation.\nThe oral formulation was suspended in 1% aqueous carboxymethyl cellulose. Blood samples from the jugular vein, at 0.25 (for IV only), 0.5, 2, 4, 8, 10, 12, and 24 h were collected into EDTA tubes. To determine the concentration of TD-7 in the whole blood, aliquots (45 µL) of blood samples were mixed with 20 µL of warfarin (used as IS) in a concentration of 1 µg/mL and 500 µL of 1% formic acid in acetonitrile. The vials were centrifuged for 5 min at 10,000 rpm, and 2 µL of the resulting solution was analyzed by LC-MS/MS.\nThe concentration of both TD-7 and Pro-7 in the collected blood samples were quantified using LC–MS/MS method utilizing LLS/DMPK/005 Shimadzu-8045 LC-MS/MS instrument equipped with Lab solution 6.8 software. Linearity of the TD-7 and Pro-7 assay methods was verified within the concentration range 8.21–3776 and 20.4–9396 ng/mL, respectively. A regression coefficient (R^2) of more than 0.993 was obtained. The analytical method was validated in accordance with the FDA Bio-analytical Method Validation Guidelines 2003. Chromatographic separation was conducted on Atlantis C18 (4.6 × 50 mm, 3.5 µm) at 30 °C. The injection volume was 2 µL, the flow rate was adjusted at 0.7 mL/min, the total run time was 2.5 min, and the mobile phase consisted of 0.1% formic acid in acetonitrile:10 mM aqueous ammonium formate (70:30 v/v). The retention times for TD-7, Pro-7 and IS were 1.047, 1.178, and 1.503 min, respectively. The limit of quantification for TD-7 and Pro-7 was established at of 8.21 and 20.4, respectively.\nPharmacokinetic parameters were calculated using non-compartmental analysis with Kinetica TM (version 4, Thermo Electron Corporation, Waltham, MA, USA) software. The following parameters were determined: Maximum plasma concentration (Cmax), Elimination half-life (t½), Area under the plasma concentration-time curve from time 0 to the last measurable concentration (AUC0–t), Area under the plasma concentration-time curve from time 0 to infinity (AUC0–∞), Clearance (Cl), and Volume of distribution (Vd).\nThe t½ was determined as 0.693 divided by the elimination rate constant. […]"}, "[3]": {"assay": "Drug solubility in SNEDDS formulation", "type": "physicochemical", "conditions": "SNEDDS (oleic acid 15%, tween 80 10%, PEG 400 75%), 25 °C, 48 h", "method": "To determine the drug solubility in the prepared SNEDDS formulation, excess amount (approximately 300 mg) of Pro-7 was added to 4 mL of the prepared SNEDDS. The mixture was vortex and kept in a shaking water bath at 25 °C for 48 h, and then filtered using Acrodisc® syringe filter ([…]) and the concentration of Pro-7 determined spectrophotometrically at 296 nm."}, "sickling": {"system": "sickling", "set-up": "method as in PMID 30289405", "conditions": "cited from earlier work"}, "[4]": {"set-up": "method as in PMID 34657559, PMID 9490025, PMID 10376886, PMID 11154732", "conditions": "cited from earlier work"}, "[5]": {"conditions": "intravenous 25 mg/kg Pro-7, rat, blood, n = 5"}, "[6]": {"conditions": "intravenous 25 mg/kg Pro-7, rat, n = 5"}, "[7]": {"conditions": "oral 50 mg/kg Pro-7 (enteric-coated formulation), rat, blood, n = 5"}, "[8]": {"conditions": "oral 50 mg/kg Pro-7 (enteric-coated formulation), rat, n = 5"}}}
{"compound": "1-(2-(3-((6-(hydroxymethyl)pyridin-2-yl)methoxy)-5 methoxyphenyl)thiazolidin-4-yl)propan-1-one [Pro-7]", "values": [{"measurement": "solubility", "setting": "[1]; acetone", "value": 11.64, "unit": "mg/mL"}, {"measurement": "solubility", "setting": "[1]; chloroform", "value": 66.43, "unit": "mg/mL"}, {"measurement": "solubility", "setting": "[1]; dichloromethane", "value": 54.89, "unit": "mg/mL"}, {"measurement": "solubility", "setting": "[1]; ethanol", "value": 85.98, "unit": "mg/mL"}, {"measurement": "solubility", "setting": "[1]; methanol", "value": 88.34, "unit": "mg/mL"}, {"measurement": "aqueous solubility", "setting": "[1]; water", "value": 0.165, "unit": "mg/mL"}, {"measurement": "AUC0–t", "setting": "[2]; [5]", "value": "1830 ± 737", "unit": "ng·h/mL"}, {"measurement": "AUC0–∞", "setting": "[2]; [5]", "value": "1956 ± 792", "unit": "ng·h/mL"}, {"measurement": "Cmax", "setting": "[2]; [5]", "value": "1426 ± 926", "unit": "ng/mL"}, {"measurement": "t½", "setting": "[2]; [5]", "value": "4.98 ± 1.89", "unit": "h"}, {"measurement": "Cl", "setting": "[2]; [6]", "value": "238 ± 85.9", "unit": "mL/min/kg"}, {"measurement": "Vd", "setting": "[2]; [6]", "value": "98.9 ± 45.3", "unit": "L/kg"}, {"measurement": "AUC0–t", "setting": "[2]; [7]", "value": "672 ± 255", "unit": "ng·h/mL"}, {"measurement": "AUC0–∞", "setting": "[2]; [7]", "value": "730 ± 225", "unit": "ng·h/mL"}, {"measurement": "Cmax", "setting": "[2]; [7]", "value": "469 ± 322", "unit": "ng/mL"}, {"measurement": "Tmax", "setting": "[2]; [7]", "value": "0.5 ± 0.0", "unit": "h"}, {"measurement": "t½", "setting": "[2]; [7]", "value": "4.73 ± 1.22", "unit": "h"}, {"measurement": "Cl", "setting": "[2]; [8]", "value": "200.89 ± 34.3", "unit": "mL/min/kg"}, {"measurement": "Vd", "setting": "[2]; [8]", "value": "83.7 ± 22.1", "unit": "L/kg"}, {"measurement": "Fraction of drug absorbed (% F)", "setting": "[2]; oral 50 mg/kg vs intravenous 25 mg/kg, rat", "value": 18.4, "unit": "%"}, {"measurement": "solubility in the prepared SNEDDS formulation", "setting": "[3]", "value": 68.94, "unit": "mg/mL"}]}
{"compound": "COc1ccc(OCc2cccc(CO)n2)c(C=O)c1", "note": "[TD-7, 2-((6-(hydroxymethyl)pyridin-2-yl)methoxy)-5-methoxybenzaldehyde]", "values": [{"measurement": "sickling inhibition potency over vanillin", "setting": "sickling", "value": "several fold"}, {"measurement": "oral bioavailability (in words)", "setting": "[4]", "value": "low oral bioavailability"}]}
